Results taken from patent US20210253575A1, “PYRROLIDINE AMINE COMPOUNDS FOR THE TREATMENT OF AUTOIMMUNE DISEASE” (Hoffmann-La Roche Inc., priority 2018, published 2021).

Target: T1, human TLR7 (Homo sapiens, UniProt Q9NYK1)
T1 sequence (Q9NYK1 27-1049): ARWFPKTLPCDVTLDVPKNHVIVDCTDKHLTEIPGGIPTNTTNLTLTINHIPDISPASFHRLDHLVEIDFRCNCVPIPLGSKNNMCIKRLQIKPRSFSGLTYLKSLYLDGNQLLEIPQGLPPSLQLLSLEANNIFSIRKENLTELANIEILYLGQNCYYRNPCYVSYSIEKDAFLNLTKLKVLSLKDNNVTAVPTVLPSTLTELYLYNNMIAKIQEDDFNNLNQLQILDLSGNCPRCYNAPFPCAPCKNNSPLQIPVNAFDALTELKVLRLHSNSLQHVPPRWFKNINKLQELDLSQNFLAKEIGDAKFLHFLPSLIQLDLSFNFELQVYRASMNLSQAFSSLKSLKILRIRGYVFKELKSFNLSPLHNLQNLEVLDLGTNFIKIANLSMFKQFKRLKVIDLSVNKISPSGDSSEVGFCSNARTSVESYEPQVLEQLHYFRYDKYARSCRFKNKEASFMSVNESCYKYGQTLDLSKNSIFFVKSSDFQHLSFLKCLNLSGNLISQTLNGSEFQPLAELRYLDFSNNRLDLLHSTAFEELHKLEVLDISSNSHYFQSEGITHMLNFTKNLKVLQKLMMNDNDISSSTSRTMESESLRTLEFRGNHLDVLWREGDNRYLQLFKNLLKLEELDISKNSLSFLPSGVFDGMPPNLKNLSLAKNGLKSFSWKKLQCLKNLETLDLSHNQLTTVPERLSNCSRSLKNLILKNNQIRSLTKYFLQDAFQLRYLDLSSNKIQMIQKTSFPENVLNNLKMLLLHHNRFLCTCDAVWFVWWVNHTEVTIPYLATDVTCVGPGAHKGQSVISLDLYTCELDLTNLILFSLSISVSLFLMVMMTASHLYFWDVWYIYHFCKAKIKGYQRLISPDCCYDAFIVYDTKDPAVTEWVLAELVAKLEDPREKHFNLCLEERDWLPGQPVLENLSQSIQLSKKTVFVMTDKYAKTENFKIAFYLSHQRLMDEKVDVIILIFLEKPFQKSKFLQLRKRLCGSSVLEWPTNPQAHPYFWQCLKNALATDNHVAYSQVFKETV
Test: HEK293-Blue-hTLR-7 cells assay (SEAP reporter, R848 stimulation)
Format: cell-based
Conditions: HEK293-Blue-hTLR7 cells, R848 ligand, 20 hrs incubation
How it was run: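 Antagonism measured in stable HEK293-Blue-hTLR7 cells carrying an NF-κB/AP-1-driven SEAP reporter, stimulated with R848 (10 µL of 20 µM stock) with serially diluted compound, 1% DMSO, 20 h at 37 °C. Supernatant SEAP read with QUANTI-Blue after 2 h at 37 °C, absorbance 620–655 nm.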

Question: How did the IC50 turn out when N#Cc1ccc(N2C[C@H](CN3CC4CNCC4C3)[C@@H](C(F)(F)F)C2)c2nccnc12 (stereo partly drawn) [Example 76, 8-[(3S,4R)-3-(2,3,3a,4,6,6a-hexahydro-1H-pyrrolo[3,4-c]pyrrol-5-ylmethyl)-4-(trifluoromethyl)pyrrolidin-1-yl]quinoxaline-5-carbonitrile] was run?
Answer: 21 nM

Question: How did the IC50 turn out when N#Cc1ccc(N2C[C@H](CN3CC4CCC3CN4)[C@@H](C(F)(F)F)C2)c2nccnc12 (stereo partly drawn) [Example 77, 8-[(3S,4R)-3-(2,5-diazabicyclo[2.2.2]octan-2-ylmethyl)-4-(trifluoromethyl)pyrrolidin-1-yl]quinoxaline-5-carbonitrile] was run?
Answer: 13 nM

Question: N#Cc1ccc(N2C[C@H](CN3CCCC(F)(CN)C3)[C@@H](C(F)(F)F)C2)c2nccnc12 (stereo partly drawn) [Example 78, 8-[(3S,4R)-3-[[3-(aminomethyl)-3-fluoro-1-piperidyl]methyl]-4-(trifluoromethyl)pyrrolidin-1-yl]quinoxaline-5-carbonitrile] was tested. Which IC50 did it give?
Answer: 32 nM

Question: Which IC50 does the source give for N#Cc1ccc(N2C[C@H](CN3CCC(CCN)CC3)[C@@H](C(F)(F)F)C2)c2nccnc12 [Example 79, 8-[(3S,4R)-3-[[4-(2-aminoethyl)-1-piperidyl]methyl]-4-(trifluoromethyl)pyrrolidin-1-yl]quinoxaline-5-carbonitrile] here?
Answer: 37 nM

Question: CN(C)C1CCN(C[C@H]2CN(c3ccc(C#N)c4nccnc34)C[C@@H]2C(F)(F)F)CC1 [Example 80, 8-[(3S,4R)-3-[[4-(dimethylamino)-1-piperidyl]methyl]-4-(trifluoromethyl)pyrrolidin-1-yl]quinoxaline-5-carbonitrile] was tested. Which IC50 did it give?
Answer: 14 nM

Question: How did the IC50 turn out when CNCC1CCN(C[C@H]2CN(c3ccc(C#N)c4nccnc34)C[C@@H]2C(F)(F)F)CC1 [Example 81, 8-[(3S,4R)-3-[[4-(methylaminomethyl)-1-piperidyl]methyl]-4-(trifluoromethyl)pyrrolidin-1-yl]quinoxaline-5-carbonitrile] was run?
Answer: 32 nM

Question: Which IC50 does the source give for CN(C)C[C@@H]1CCN(C[C@H]2CN(c3ccc(C#N)c4nccnc34)C[C@@H]2C(F)(F)F)C1 [Example 82, 8-[(3S,4R)-3-[[(3S)-3-[(dimethylamino)methyl]pyrrolidin-1-yl]methyl]-4-(trifluoromethyl)pyrrolidin-1-yl]quinoxaline-5-carbonitrile] here?
Answer: 106 nM
